In patent US20250049709A1, “ZIPRASIDONE FORMULATIONS” (BELOTECA, INC., priority 2021, published 2025):
≈ marks a conversion by molar mass, not a printed value. Counter-ions that a name gives are not always drawn. Like-named read-outs stand apart in the source and are kept apart here.

Experiments:
[1] = cited from earlier work
[2] = pH value of 1% w/v aqueous ziprasidone suspension; type: physicochemical; details: 1% w/v aqueous ziprasidone suspension at 25° C.
Method: This pH value corresponds to a pH value of ziprasidone in water determined on a 1% w/v aqueous ziprasidone suspension at 25° C.

Compound | solubility in water [1] [mg/mL] | solubility in water ([1]; 25° C.) [mg/mL] | pH value of ziprasidone in water [2]
ziprasidone mesylate trihydrate | 0.013 | – | –
O=C1Cc2cc(CCN3CCN(c4nsc5ccccc45)CC3)c(Cl)cc2N1 [ziprasidone hydrochloride] | 0.00718 | – | –
O=C1Cc2cc(CCN3CCN(c4nsc5ccccc45)CC3)c(Cl)cc2N1 [ziprasidone] | – | 2.13 (≈ 5.16 mM) | ~3.2
